Data reported in ChEMBL document CHEMBL5584329, “Development of new dehydrocostuslactone derivatives for treatment of atopic dermatitis via inhibition of the NF-κB signaling pathway” (RSC Med Chem, 2024).
Activity calls are given as the source filed them. The rule behind the calls is not given here.

Key:
RAW264.7 [1] = test: Inhibition of LPS-induced NO production in mouse RAW264.7 cells at 20 uM preincubated for 2 hrs followed by LPS addition and measured after 24 hrs by Griess assay relative to control; type: functional; conditions: time 26 hrs
[2] = Cytotoxicity against mouse RAW264.7 cells assessed as inhibition of cell viability at 20 uM by MTT assay relative to control; type: toxicity, cell-based; conditions: read-out: INH
RAW264.7 [3] = test: Inhibition of LPS-induced NO production in mouse RAW264.7 cells preincubated for 2 hrs followed by LPS addition and measured after 24 hrs by Griess assay relative to control; type: functional, cell-based
[4] = Cytotoxicity against mouse RAW264.7 cells assessed as inhibition of cell viability by MTT assay relative to control; type: toxicity, cell-based
Mus musculus [5] = test: Antiinflammatory activity against MC093-induced atopic dermatitis BALB/c mouse model assessed as reduction in epidermal thickness of ear administered starting from day 4 to 10 after MC093-stimulation by H and E staining assay; type: functional, organism-based
Mus musculus [6] = test: Antiinflammatory activity against MC093-induced atopic dermatitis BALB/c mouse model assessed as reduction in inflammatory cell infiltration in ear administered starting from day 4 to 10 after MC093-stimulation by H and E staining assay; type: functional, organism-based

SMILES | IC50 (RAW264.7 [3]) | inhibition at 20 µM (RAW264.7 [1]) | cytotoxicity at 20 µM [2] | IC50 [4] | Activity (Mus musculus [5]) | Activity (Mus musculus [6])
C=C1CC[C@H]2C(=C)CC[C@H]3C(CN(CCNS(=O)(=O)c4ccc(F)cc4)S(=O)(=O)c4ccc(F)cc4)C(=O)O[C@@H]3[C@@H]12 (stereo not given in full) | 15.2 µM | 75.1% | 9.81% | > 40 µM | – | –
C=C1CC[C@H]2C(=C)CC[C@H]3C(CNCCNCc4cc(Br)ccc4O)C(=O)O[C@@H]3[C@@H]12 (stereo not given in full) | – | 23.5% | -2.07% | – | – | –
C=C1CC[C@H]2C(=C)CC[C@H]3C(=C)C(=O)O[C@@H]3[C@@H]12 [DEHYDROCOSTUSLACTONE] | 21.5 µM | 40.3% | 17.3% | > 40 µM | – | –
C[C@@H]1C[C@H]2[C@@H]3CCC4=CC(=O)C=C[C@]4(C)[C@@]3(F)[C@@H](O)C[C@]2(C)[C@@]1(O)C(=O)CO [DEXAMETHASONE] | 11 µM | – | – | > 40 µM | Active | Active
C=C1CC[C@H]2C(=C)CC[C@H]3C(CNCCNCc4cc(Cl)cc(Cl)c4O)C(=O)O[C@@H]3[C@@H]12 (stereo not given in full) | 19.4 µM | 51.5% | 8.94% | > 40 µM | – | –

More lines, in order of falling IC50 (RAW264.7 [3]), values ahead:

IC50 (RAW264.7 [3]) | SMILES | inhibition at 20 µM (RAW264.7 [1]) | cytotoxicity at 20 µM [2] | IC50 [4] | Activity (Mus musculus [5]) | Activity (Mus musculus [6])
7.72 µM | C=C1CC[C@H]2C(=C)CC[C@H]3C(CN(CCNS(=O)(=O)c4ccc(C)cc4)S(=O)(=O)c4ccc(C)cc4)C(=O)O[C@@H]3[C@@H]12 (stereo not given in full) | 82.5% | 14.8% | > 40 µM | – | –
5.13 µM | C=C1CC[C@H]2C(=C)CC[C@H]3C(CNCCNS(=O)(=O)C4CC4)C(=O)O[C@@H]3[C@@H]12 (stereo not given in full) | 85.4% | 12.2% | > 40 µM | – | –
4.26 µM | C=C1CC[C@H]2C(=C)CC[C@H]3C(CN(CCNS(=O)(=O)c4ccc(OC(F)(F)F)cc4)S(=O)(=O)c4ccc(OC(F)(F)F)cc4)C(=O)O[C@@H]3[C@@H]12 (stereo not given in full) | 84% | 13.6% | > 40 µM | – | –
